Results on 14 compounds are retold here after US8304577B2, “Modulators of G protein-coupled receptor 88” (Bristol-Myers Squibb Company, priority 2009, dated 2012).

G protein-coupled receptor 88 (GPR88), sequence (Q9GZN0 whole entry, species assumed): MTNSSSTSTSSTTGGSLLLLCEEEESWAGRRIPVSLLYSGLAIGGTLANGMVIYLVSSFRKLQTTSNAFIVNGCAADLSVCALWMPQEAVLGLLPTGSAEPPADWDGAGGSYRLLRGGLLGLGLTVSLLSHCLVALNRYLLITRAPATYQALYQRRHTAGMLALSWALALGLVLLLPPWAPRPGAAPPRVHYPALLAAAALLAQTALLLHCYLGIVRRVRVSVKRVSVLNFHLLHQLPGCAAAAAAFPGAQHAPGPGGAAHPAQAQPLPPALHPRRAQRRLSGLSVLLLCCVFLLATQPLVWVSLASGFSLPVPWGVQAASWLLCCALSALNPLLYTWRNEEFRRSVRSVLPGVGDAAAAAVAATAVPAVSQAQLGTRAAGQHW

For the first assay, the target named is G protein-coupled receptor 88 (GPR88) (Homo sapiens, UniProt Q9GZN0). Kind of assay: GPR88 functional assay: EC50 of Table 2 (GTPγS assay and cAMP HTRF assay described; table does not say which). The format is cell-based. The settings on record: class symbol; read-out: Range (EC50). On the procedure:
96 well GTPγS assay plates were purchased from Perkin Elmer. Wheat Germ Agglutinin PVT SPA beads and ^35S-GTPγS were purchased from Amersham GDP, GTPγS and all buffer reagents were from Sigma. 384 well white NBS plates were purchased from corning. Pertussis toxin was purchased from Calbiochem. All cell culture reagents were purchased from Invitrogen. Forskolin was purchased from Sigma. The cAMP HTRF kit was purchased fron Cisbio International.
The GTPγS assay buffer consisted of 10 mM MgCl2, 180 mM NaCl, 200 uM GDP, 0.167 mg/mL DTT, 1 mM EGTA and 20 mM HEPES pH7.4. This buffer was used for dilution of membranes, beads, and ^35S GTPγS components. To each well of the 96 well assay plate 48 ul assay buffer, 2 ul of 100× compound, 50 ul membrane solution (0.2 ug/ul), 50 ul ^35S GTPγS solution (0.8 nM) and 50 ul of SPA beads (10 mg/mL). Non-specific binding was determined by the addition of cold GTPγS to control wells. The plates were sealed with clear sealing tape and incubated at room temperature for 1 hour. GTPγS activity was detected using a Wallac Micro-Beta Trilux liquid scintillation counter. Non-specific binding was determined using 10 uM cold GTPγS.
The cAMP HTRF assay is modified from the Cisbio International kit procedure 62AM4PEJ. Assay plates were prepared by stamping 0.1 ul of 100× compound stock solutions diluted in DMSO or DMSO alone into 384 well NBS plates. The cAMP HTRF assay was performed using cells in suspension. The cAMP HTRF assay buffer consisted of Hank's Balanced Salt Solution (HBSS), 2 mM CaCl2, 5 mM MgCl2, 20 mM HEPES and 1 mM 3-isobutyl-1-methylxanthine (IBMX) (added fresh at the time of assay). For pertussis toxin treatment pertussis toxin (100 ng/mL) was added to culture medium for 16 hours prior to assay. Confluent cells were disrupted with cell dissociation buffer count cells then centrifuged at 1000×g for 5 minutes. The cell pellet was resuspended in assay buffer alone for basal cAMP measurements or with 0.75 uM forskolin (added immediately prior to addition to wells) for addition to all other wells. Using a Multidrop 384 (Lab systems) 10 ul of cell suspension was added to each well containing compound or DMSO. The plates were incubated at room temperature for 30 minutes covered. During this time the cAMP standard curve was prepared as per manufacturer's instruction. At the end of the incubation 10 ul of anti-cAMP cryptate and 10 ul cAMP-XL, diluted in manufacturer's lysis buffer, were added to each well. The plated were incubated at room temperature for 60 minutes covered then read on an Envision plate reader (Perkin Elmer) and the 665 nm/620 nm fluorescence ratio determined Fluorescence ratio values were converted to molar cAMP concentrations from the standard curve using the GraphPad Prism program.
In general terms: Time-resolved FRET reads energy transfer from a long-lived donor to a nearby acceptor.
For `CCCC(C)COc1ccc([C@H](CNC(=O)[C@H](N)[C@@H](C)CC)NC(=O)[C@@H](C)c2ccccc2)cc1` (stereo partly drawn) [Example 33, (2R,3S)-2-Amino-3-methyl-N-((2R)-2-(4-(2-methylpentyloxy)phenyl)-2-((S)-2-phenylpropanamido)ethyl)pentanamide], the 50% effective concentration (EC50) fell in the range of 0.1 to 0.2 µM.

Consider `CCCC(C)COc1ccc([C@H](CNC(=O)[C@H](N)CC(C)C)NC(=O)[C@@H](C)c2ccccc2)cc1` (stereo partly drawn) [Example 20, (2R)-2-Amino-4-methyl-N-((2R)-2-(4-(2-methylpentyloxy)phenyl)-2-((S)-2-phenylpropanamido)ethyl)pentanamide], for which the 50% effective concentration (EC50) lay within 0.039 to 0.099 µM.

Turning to `CCCC(C)COc1ccc([C@H](CNC(=O)[C@@H](C)N)NC(=O)[C@@H](C)c2ccccc2)cc1` (stereo partly drawn) [Example 29, (2R)-2-Amino-N-((2R)-2-(4-(2-methylpentyloxy)phenyl)-2-((S)-2-phenylpropanamido)ethyl)propanamide], the EC50 is 0.1 to 0.2 µM.

On to `CCCC(C)COc1ccc([C@H](CNC(=O)[C@@H](N)C(C)C)NC(=O)[C@@H](C)c2ccccc2)cc1` (stereo partly drawn) [Example 24, (2S)-2-Amino-3-methyl-N-((2R)-2-(4-(2-methylpentyloxy)phenyl)-2-((S)-2-phenylpropanamido)ethyl)butanamide], for which the EC50 was in the range of 0.039 to 0.099 µM.

`CCCC(C)COc1ccc([C@H](CNCC2CCOC2)NC(=O)[C@@H](C)c2ccccc2)cc1` (stereo partly drawn) [Example 14, (2S)-N-((1R)-1-(4-(2-Methylpentyloxy)phenyl)-2-((tetrahydrofuran-3-yl)methylamino)ethyl)-2-phenylpropanamide]: the EC50 lay within 0.1 to 0.2 µM.

On to `CCCC(C)COc1ccc([C@H](CN(C)C)NC(=O)[C@@H](C)c2ccccc2)cc1` (stereo partly drawn) [Example 6, (2S)-N-((1R)-2-(Dimethylamino)-1-(4-(2-methylpentyloxy)phenyl)ethyl)-2-phenylpropanamide], for which the EC50 fell in the range of 0.039 to 0.099 µM.

Turning to `CCCNC[C@H](NC(=O)[C@@H](C)c1ccccc1)c1ccc(OC[C@@H](C)CC)cc1` [Example 38, (S)-N-{(R)-1-[4-((S)-2-Methyl-butoxy)-phenyl]-2-propylamino-ethyl}-2-phenylpropionamide], the EC50 lay in the range of 0.1 to 0.2 µM.

For `CCCC(C)COc1ccc([C@H](CNC(=O)[C@H](N)Cc2cscn2)NC(=O)[C@@H](C)c2ccccc2)cc1` (stereo partly drawn) [Example 34, (2R)-2-Amino-N-((2R)-2-(4-(2-methylpentyloxy)phenyl)-2-((S)-2-phenylpropanamido)ethyl)-3-(thiazol-4-yl)propanamide], the 50% effective concentration (EC50) lay in the range of 0.1 to 0.2 µM.

For the compound `CCCC(C)COc1ccc([C@H](CNCc2cc[nH]n2)NC(=O)[C@@H](C)c2ccccc2)cc1` (stereo partly drawn) [Example 11, (2S)-N-((1R)-2-((1H-Pyrazol-3-yl)methylamino)-1-(4-(2-methylpentyloxy)phenyl)ethyl)-2-phenylpropanamide], the concentration giving a half-maximal response (EC50) fell in the range of 0.1 to 0.2 µM.

As to `CCCC(C)COc1ccc([C@H](CNCc2ccncc2)NC(=O)[C@@H](C)c2ccccc2)cc1` (stereo partly drawn) [Example 9, (2S)-N-((1R)-1-(4-(2-Methylpentyloxy)phenyl)-2-(pyridin-4-ylmethylamino)ethyl)-2-phenylpropanamide], the EC50 was 0.1 to 0.2 µM.

As to `CCCC(C)COc1ccc([C@H](CNC(=O)[C@@H](N)[C@H](C)CC)NC(=O)[C@@H](C)c2ccccc2)cc1` (stereo partly drawn) [Example 27, (2S,3R)-2-Amino-3-methyl-N-((2R)-2-(4-(2-methylpentyloxy)phenyl)-2-((S)-2-phenylpropanamido)ethyl)pentanamide], the 50% effective concentration (EC50) lay within 0.1 to 0.2 µM.

`CCCC(C)COc1ccc([C@H](CNC(=O)[C@H](N)CCC)NC(=O)[C@@H](C)c2ccccc2)cc1` (stereo partly drawn) [Example 31, (2R)-2-Amino-N-((2R)-2-(4-(2-methylpentyloxy)phenyl)-2-((S)-2-phenylpropanamido)ethyl)pentanamide]: the concentration giving a half-maximal response (EC50) is 0.1 to 0.2 µM.

Staying with this assay, now noted: exact value given; read-out: Range (EC50).
Turning to `CCCC(C)COc1ccc([C@H](CNC[C@@H]2CCCN2)NC(=O)[C@@H](C)c2ccccc2)cc1` (stereo partly drawn) [Example 16, (2S)-N-((1R)-1-(4-(2-Methylpentyloxy)phenyl)-2-((S)-pyrrolidin-2-ylmethylamino)ethyl)-2-phenylpropanamide], the EC50 turned out to be 0.1 µM.

Consider `CCCC(C)COc1ccc([C@H](CN)NC(=O)[C@@H](C)c2ccccc2)cc1` (stereo partly drawn) [Example 5, (2S)-N-((1R)-2-Amino-1-(4-(2-methylpentyloxy)phenyl)ethyl)-2-phenylpropanamide], for which the EC50 was determined as 0.054 µM.

For orientation: EC50 means the midpoint of the concentration-response curve.
